Assay results published in patent EP1087941B9, “THIOLESTERS AND USES THEREOF” (THE UNITED STATES OF AMERICA, as represented by THE …, priority 1998, dated 1999).
pIC50: −log10 of the molar value.

What was measured:
[1] = target: T1, recombinant HIV-1 integrase (Human immunodeficiency virus type 1 group M subtype B, UniProt P03366); experiment: Integrase 3' processing and strand transfer assay; format: biochemical; details: for pIC50: Table 7, high dose test of 100 µM, read-out: Integrase I50
T1 construct: The ability of recombinant HIV-1 integrase; S. Hughes, ABL Basic Research NCI-FCRDC, Frederick MD (supplied, not a catalogue product)
Description: The 5-bromovaleroyl thioester, compound 44, and two 5-pyridiniovaleroyl thioesters, compounds 45 and 47, were analyzed in mechanistic and target-based assays. […] Assays for activity against HIV-1 reverse transcriptase rAdT (template/primer) and rCdG (template/primer) using recombinant HIV-1 reverse transcriptase (S. Hughes, ABL Basic Research NCI-FCRDC, Frederick MD) were performed as described by Rice (1997) supra. Substrate cleavage of recombinant HIV-1 protease in the presence of test compounds using an HPLC-based methodology with the artificial substrate Ala-Ser-Glu-Asn-Try- Pro-Ile-Val-amide (Multiple Peptide Systems, San Diego CA) was performed as described by Rice (1997) supra. The ability of recombinant HIV-1 integrase (S. Hughes, ABL Basic Research NCI-FCRDC, Frederick MD) to carry out 3' processing and strand transfer activities in the presence of test compounds was performed as described by Buckheit (1994) AIDS Res. Hum. Retroviruses 10:1497-1506, and Turpin (1998) Antimicrob. Agents Chemother. 42: 487-494.

Sp1 = target: T2, Sp1 (Homo sapiens, UniProt P08047); experiment: Sp1 super gel shift EMSA with K562 cell nuclear extracts (specificity); format: biochemical; details: specificity for CCHC versus CCHH zinc finger
T2 construct: K562 cell nuclear extracts, and antibodies for Sp1 (Spl[PEP2]-G); host or cells: K562 cell nuclear extracts
Description: To determine if compound 44, 45 or 47 binding activity was specific for CCHC zinc fingers, a super gel shift EMSA after treatment of K562 cell nuclear extracts with the compounds was performed. This was followed by super shifting with Spl-specific antibody. Spl was chosen because it is a cellular transcription factor that contains three copies of a classical type CCHH zinc finger motif that are required for Sp1 binding to its DNA target. […] Super gel shifting to determine the specificity of zinc finger reactive compounds was carried out using an Sp1 consensus oligomer (Stratagene, La Jolla, CA), K562 cell nuclear extracts, and antibodies for Sp1 (Spl[PEP2]-G) (extracts and Spl Abs from Santa Cruz Biotechnology, Inc., Santa Cruz, CA). The binding reactions of oligonucleotides with K562 nuclear extract, as well as electrophoretic conditions were carried out as described in the Gelshift Buffer Kit, Stratagene, La Jolla, CA.

Pr^55gag precursor = target: T3, Pr^55gag precursor (Human immunodeficiency virus type 1 group M subtype B, UniProt P03347); experiment: Gag precursor cross-linking and processing in TNFα-induced U1 cells, Western blotting; format: cell-based, HIV-1; details: for cross-linking of viral precursor polyproteins: TNFα-induced U1 cells, Western blotting; for Pr^55gag precursor processing: after reduction with β-ME, compound 45 at 100 µM
T3 construct: Visualization of viral proteins from TNFα-induced U1 cells by electrophoretic separation and immunoblotting; endogenous in cells; host or cells: TNFα-induced U1 cells (integrated HIV-1 provirus)
Description: Thiolester compounds were also tested for their ability to inhibit HIV-1 replication in TNFα-induced U1 and ACH-2 cells. U1 cells were induced with 5 ng/ml of TNFα in the presence of various concentrations of the thiolesters 44, 45 or 47. Forty-eight hours later the cultures were characterized for virus p24 antigen production and cell viability. […] Compound 44 killed 60% of the cells at 200 µM. […] Precursor processing evaluation performed as described by Turpin (1997) Antiviral Chem. Chemother. 8:60-69. Thus, thiolester PATEs initiate intracellular disulfide cross-linking of precursor polyproteins during late phase virus assembly and mediate a direct virucidal effect via an attack on the mature NCp7 retroviral zinc fingers in the cell-free virus.
Virion cross linking was performed as described by Rice (1995) Science 270:1194-1197 and Turpin (1997) Antiviral Chem. Chemother. 8:60-67. Briefly, highly purified HIV-1 MN (11.8 µg total protein) was incubated for 2 hour with concentrations of compound. Virions were concentrated and residual compound was removed by centrifugation (18,000 x g, 1 h, 4°C). The viral pellet was solubilized in 0.5 M Tris-HCl,(pH 6.8), 50% glycerol, 8% SDS and 0.4% bromophenol blue and proteins resolved by Western blotting. Western blotting to detect the expression of HIV-1 proteins in U1 cells or virus pellets for virion cross-linking experiments was carried out as described by Turpin (1996) J. Virol. 70:6180-6189. Briefly, 50 µg of total cellular protein for U1 experiments or the total virion pellet (11.8 µg total viral protein) for NCp7 cross linking studies was resolved on 4 to 20% polyacrylamide gels in SDS with Tris-Glycine (Novex, San Diego CA). Samples for reduced gels were boiled for 5 min in the presence of 5% β-ME prior to loading. Resolved proteins were electroblotted on to polyvinylidene difluoride (PVDF) membranes, and HIV-1 specific proteins were detected using a mixture of goat anti- HIV-1 NCp7 and p24 or anti-NCp7 for virion proteins alone (a kind gift of L. E. Henderson, AIDS Vaccine Program NCI-FCRDC, Frederick, MD). Western blots were developed using standard chemiluminescence methodologies, as produced and described by Dupont-NEN, Wilmington, DE.

T2 sequence (P08047 whole entry): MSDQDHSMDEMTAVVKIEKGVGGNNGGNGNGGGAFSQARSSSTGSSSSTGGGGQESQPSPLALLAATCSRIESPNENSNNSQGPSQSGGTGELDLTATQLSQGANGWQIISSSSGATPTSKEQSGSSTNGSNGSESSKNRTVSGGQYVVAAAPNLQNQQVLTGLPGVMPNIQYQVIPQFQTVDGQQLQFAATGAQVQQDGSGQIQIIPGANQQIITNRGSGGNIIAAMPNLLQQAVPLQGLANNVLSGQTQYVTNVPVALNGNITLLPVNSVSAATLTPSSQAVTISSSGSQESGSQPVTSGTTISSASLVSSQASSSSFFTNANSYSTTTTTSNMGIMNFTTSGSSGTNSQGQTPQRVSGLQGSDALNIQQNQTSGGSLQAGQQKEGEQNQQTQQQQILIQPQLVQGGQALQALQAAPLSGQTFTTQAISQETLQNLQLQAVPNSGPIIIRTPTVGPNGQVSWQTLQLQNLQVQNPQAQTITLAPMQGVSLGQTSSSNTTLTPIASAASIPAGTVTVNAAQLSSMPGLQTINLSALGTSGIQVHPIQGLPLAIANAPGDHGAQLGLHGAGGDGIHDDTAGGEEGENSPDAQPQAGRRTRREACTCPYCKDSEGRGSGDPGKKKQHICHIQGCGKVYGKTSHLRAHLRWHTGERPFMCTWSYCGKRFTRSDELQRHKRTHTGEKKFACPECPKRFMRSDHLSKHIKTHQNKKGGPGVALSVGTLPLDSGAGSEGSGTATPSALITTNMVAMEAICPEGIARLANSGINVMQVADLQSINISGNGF

Compound | inhibition of HIV-1 integrase enzyme activity [1] | pIC50 [1] | effect on super shifting of Sp1 bound to its DNA target (Sp1) | cross-linking of viral precursor polyproteins (Pr^55gag precursor) | Pr^55gag precursor processing (Pr^55gag precursor)
CC(=O)NS(=O)(=O)c1ccc(NC(=O)c2ccccc2SC(=O)CCCCBr)cc1 [Compound 44, N-[2-(5-bromovaleroylthio)benzoyl]sulfacetamide] | did not inhibit | < 4.00 | failed to alter the pattern of super shifting | induced β-ME reversible alterations in the mobility of zinc finger containing HIV-1 precursor proteins | –
CC(=O)NS(=O)(=O)c1ccc(NC(=O)c2ccccc2SC(=O)CCCC[n+]2ccccc2)cc1 [Compound 45, N-[2-(5-pyridinio-valeroylthio)benzoyl]sulfacetamide bromide] | did not inhibit | < 4.00 | failed to alter the pattern of super shifting | induced cross-linking of viral precursor polyproteins | inhibited Pr^55gag precursor processing
O=C(CCCC[n+]1ccccc1)Sc1ccccc1C(=O)Nc1ccc(S(=O)(=O)c2ccc([N+](=O)[O-])cc2)cc1 [Compound 47] | did not inhibit | – | failed to alter the pattern of super shifting | induced cross-linking of viral precursor polyproteins | inhibited Pr^55gag precursor processing
